Measured values taken from US20250367132A1, “SOLID LIPID NANOPARTICLES FOR ENCAPSULATION AND DELIVERY OF BIOACTIVE COMPOUNDS AND METHODS OF MAKING THE SAME” (Yubeck, Inc., priority 2024, published 2025).

What was measured:
[1] = cited from earlier work
[2] = Dynamic light scattering (DLS): mean particle size and polydispersity index; format: physicochemical
Protocol: SLNs are characterized by particle size distribution, polydispersity index (PDI), surface charge (zeta potential), encapsulation efficiency (EE %), and loading capacity (LC %), all of which influence their stability, bioavailability, and controlled release properties. Particle size distribution is measured using dynamic light scattering (DLS), nanoparticle tracking analysis (NTA), or any equivalent method, ensuring SLN sizes range from 10 nm approximately 1000 nm. PDI, measured by DLS or NTA indicates uniformity of particle size distribution. Zeta potential, measured using […], electrophoretic light scattering (ELS), or an equivalent method, must have an absolute value of ≥25 mV, ensuring sufficient electrostatic repulsion to maintain colloidal stability. Encapsulation efficiency (EE %) and loading capacity (LC %) are measured using UV-Vis Spectroscopy, high performance liquid chromatography, or liquid chromatography mass spectrometry (LC-MS), amino acid analysis (AAA), or any equivalent method, with target values defined for each bioactive compound.
An example of the manufacturing process of whole Spirulina SLNs is disclosed below. In accordance with an aspect of the present invention, palmitic acid is dissolved in 100% ethanol (1.5 mg/mL) and heated to 70° C. Natural and sustainable ingredients that can be used as alternatives to palmitic acid, include stearic acid, behenic acid, lauric acid, cetyl alcohol, cocoa butter, shea butter, carnauba wax, candelilla wax, beeswax, and glycerol monostearate (GMS). Other natural lipids, such as oleic acid, linoleic acid, alpha-linolenic acid, gamma-linolenic acid, triglycerides such as medium-chain triglycerides (MCTs) or long-chain triglycerides (LCTs), and natural oils such as coconut oil, olive oil, and sunflower oil. Additional naturally derived lipid components such as 1-monolaurin, phosphatidylcholine, and phosphatidylethanolamine may also be used. […] The Spirulina SLNs are quantified using […] to measure the mean particle, PDI, and zeta potential. […]

Compound | Acceptable Daily Intake (ADI) ([1]; FDA, color additive petitions) | No Observed Effect Level (NOEL) ([1]; GRAS submission) | PDI ([2]; non-encapsulated, in solution) | PDI ([2]; unencapsulated, before SLN fabrication) | mean particle size (initial diameter) ([2]; unencapsulated, in ethanol, before SLN fabrication)
phycocyanin | 1.0-1.8 g/p/d | 108-184.5 g/p/d |  |  | 
C=C1CC[C@H](O)C/C1=C/C=C1\CCC[C@]2(C)[C@@H]([C@H](C)CCCC(C)C)CC[C@@H]12 [vitamin D3, cholecalciferol] |  |  | 0.10±0.01% | 10.17±2.26 | 124.6±0.1 nm
